Experimental data taken from US20100197604A1, “USE OF PEPTIDE AS A THERAPEUTIC AGENT” (priority 2007, published 2010).

Key:
[1] = system: Pseudomonas aeruginosa; format: cell-based; details: 5 micrograms per ml
[2] = system: Streptococcus pneumoniae; format: cell-based; details: 5 micrograms per ml
[3] = system: MRSA; details: 5 micrograms per ml
[4] = system: HepG2-2.2.15 cells; assay: Cytotoxicity in HepG2-2.2.15 cells (dye uptake); details: test peptide 10 micrograms per ml
[5] = system: HIV-1IIIB; assay: HIV-1 antiviral assay (CPE reduction, MTS); format: cell-based; details: peptide 10 micrograms per ml, 6 days post-infection
[6] = system: CEM-SS cells; assay: Cytotoxicity in CEM-SS cells (MTS cell viability); details: peptide 10 micrograms per ml
[7] = system: MRC-5 cells (human embryonal lung fibroblasts); details: 6 days

CC[C@H](C)[C@H](NC(=O)[C@H](Cc1ccc(O)cc1)NC(=O)[C@@H](NC(=O)[C@H](CCCNC(=N)N)NC(=O)[C@@H](N)CC(=O)O)C(C)C)C(=O)N[C@@H](Cc1c[nH]cn1)C(=O)N1CCC[C@H]1C(=O)N[C@@H](Cc1ccccc1)C(=O)O [Angiotensin II] was tested, and the “% inhibition” value [1] was 0.0%, the “% inhibition” value [2] was 100.0% and the “% inhibition” value [3] was 0.0%.
Nc1ccn([C@@H]2CS[C@H](CO)O2)c(=O)n1 [Compound 3TC, Lamivudine] was tested, and the “% Cell viability” value [4] was 95.8%.
With Cc1cn([C@H]2C[C@H](N=[N+]=[N-])[C@@H](CO)O2)c(=O)[nH]c1=O [AZT] the “% CPE reduction in HIV-1 infected CEM-SS cells” value [5] was 99% and the “% Cell viability” value [6] was 97%.
With Nc1nc(O)c2ncn(COC(CO)CO)c2n1 [Ganciclovir] the “% Cell viability” value [7] was 100%.
